{"source": "patent US6770799B2", "about": "“Expression of recombinant human acetylcholinesterase in transgenic plants” (priority 2000, dated 2004)", "key": {"[1]": {"target": "T1, plant derived recombinant AChE (rAChE) (Homo sapiens, UniProt P22303)", "T1 construct": "We expressed the engineered AChE-E4 form, encoded by exons 2-4 of the human gene; made in house; host or cells: transgenic tomato (Lycopersicum esculentum cv. Micro-Tom), cleared leaf extracts", "experiment": "Inhibition of plant-derived recombinant AChE (Ellman assay)", "format": "biochemical", "conditions": "for inhibition of plant derived rAChE: 1 mM acetylthiocholine"}, "[2]": {"target": "T2, human AChE derived from erythrocytes (Homo sapiens, UniProt P22303)", "T2 construct": "a commercially available preparation of AChE from human erythrocytes; purchased; host or cells: human erythrocytes", "T2 sequence (P22303 32-617 isoform P22303-2 limits assumed)": "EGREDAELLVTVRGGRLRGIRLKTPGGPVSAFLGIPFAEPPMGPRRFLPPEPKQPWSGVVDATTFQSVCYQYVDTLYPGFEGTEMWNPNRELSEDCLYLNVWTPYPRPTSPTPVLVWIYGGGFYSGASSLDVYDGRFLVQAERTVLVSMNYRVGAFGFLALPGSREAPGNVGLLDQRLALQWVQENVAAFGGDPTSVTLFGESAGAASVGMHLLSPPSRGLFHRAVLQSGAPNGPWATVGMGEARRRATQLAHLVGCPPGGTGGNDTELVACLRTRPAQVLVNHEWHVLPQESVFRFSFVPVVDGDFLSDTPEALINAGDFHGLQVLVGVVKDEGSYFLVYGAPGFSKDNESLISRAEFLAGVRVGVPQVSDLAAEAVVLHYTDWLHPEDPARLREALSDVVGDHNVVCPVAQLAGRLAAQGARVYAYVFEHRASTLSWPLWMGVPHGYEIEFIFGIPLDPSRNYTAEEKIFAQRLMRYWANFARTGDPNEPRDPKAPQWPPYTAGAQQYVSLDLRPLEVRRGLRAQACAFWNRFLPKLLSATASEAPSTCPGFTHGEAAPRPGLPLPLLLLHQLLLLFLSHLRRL", "experiment": "Inhibition of AChE from human erythrocytes (Ellman assay)", "format": "biochemical"}, "[3]": {"experiment": "Heat and storage stability of AChE activity in crude leaf extracts", "format": "physicochemical", "experimental": "To evaluate the heat stability of the enzyme, plant extracts were incubated for 30 minutes at the indicated temperatures and then assayed as described above. Stability of the enzymatic activity was determined at 4 degrees C. and at 25 degrees C. by incubating plant extracts at the respective temperatures and assaying samples at the indicated time points.\nThe plant-derived hAChE in total soluble protein extracts retained 50% of its initial activity after incubation at 42 degrees for at least 30 minutes (FIG. 5A). Crude leaf extracts were incubated at the indicated temperatures for 30 minutes and then subjected to Ellman's AChE assay. […] The activity was very stable at 4 degrees C., with only 20% loss after 24 hours (FIG. 5B). Crude leaf extracts were incubated at 4 degrees C. or at 25 degrees C. for the indicated time periods and then assayed for AChE activity."}, "[4]": {"experiment": "Km determination of plant-derived hAChE (Ellman assay, Lineweaver-Burk analysis)", "format": "biochemical", "conditions": "acetylthiocholine 0.05-50 mM; four expressing lines", "description": "Scaled-down microtiter plate Ellman assays were performed, according to standard methods, which are well known in the art. […] At the end of the 30 minute incubation period, 100 μl of 1 mM 5-5′-dithio-bis(2-nitrobenzoate) (Ellman's reagent) and 2 mM acetylthiocholine in assay buffer was added. Hydrolysis was monitored by measuring optical density at 405 nm at 5 minute intervals for 30 minutes, using a microtiter plate spectrophotometer, plotted against time, and initial rates were calculated from the slope of the linear portion of the graph. Net hydrolysis rates were calculated by subtracting the rates measured in the presence of BW284c15 from those obtained in its absence. To determine the Km, the concentration of the acetylthiocholine substrate in the Ellman's reagent was varied in the range of 0.05-50 mM."}}, "data": [{"molecule": "CCOP(=O)(OCC)Oc1ccc([N+](=O)[O-])cc1", "note": "[paraoxon, diethyl p-nitrophenyl phosphate]", "values": [{"measurement": "susceptibility of plant-derived E4 enzyme relative to equivalent recombinant enzyme from transgenic mice", "setting": "[1]", "result": "somewhat less susceptible"}, {"measurement": "inhibition of plant derived rAChE", "setting": "[1]", "result": "can inhibit"}]}, {"molecule": "CN(C)C(=O)Oc1cccc([N+](C)(C)C)c1", "note": "[neostigmine]", "values": [{"measurement": "inhibition of plant derived rAChE", "setting": "[1]", "result": "can inhibit"}]}, {"molecule": "O=S(=O)(F)Cc1ccccc1", "note": "[PMSF, phehylmethylsulfonyl fluoride]", "values": [{"measurement": "inhibition of plant derived rAChE", "setting": "[1]", "result": "can inhibit"}]}, {"molecule": "CC(C)NP(=O)(NC(C)C)OP(=O)(NC(C)C)NC(C)C", "note": "[Iso-OMPA, tetraisopropyl pyrophosphoramide]", "values": [{"measurement": "inhibition of erythrocyte-derived enzyme", "setting": "[2]; at 10 mM", "result": "only partial inhibition"}, {"measurement": "effect on erythrocyte-derived enzyme", "setting": "[2]; up to 100 μM", "result": "no effect"}, {"measurement": "inhibition of plant-derived enzyme", "setting": "[1]; at 10 mM", "result": "only partial inhibition"}, {"measurement": "effect on plant-derived enzyme", "setting": "[1]; up to 100 μM", "result": "no effect"}]}, {"molecule": "plant-derived hAChE (protein, UniProt P22303 32-614, looked up, plant-expressed) Acetylcholinesterase: EGREDAELLVTVRGGRLRGIRLKTPGGPVSAFLGIPFAEPPMGPRRFLPPEPKQPWSGVVDATTFQSVCYQYVDTLYPGFEGTEMWNPNRELSEDCLYLNVWTPYPRPTSPTPVLVWIYGGGFYSGASSLDVYDGRFLVQAERTVLVSMNYRVGAFGFLALPGSREAPGNVGLLDQRLALQWVQENVAAFGGDPTSVTLFGESAGAASVGMHLLSPPSRGLFHRAVLQSGAPNGPWATVGMGEARRRATQLAHLVGCPPGGTGGNDTELVACLRTRPAQVLVNHEWHVLPQESVFRFSFVPVVDGDFLSDTPEALINAGDFHGLQVLVGVVKDEGSYFLVYGAPGFSKDNESLISRAEFLAGVRVGVPQVSDLAAEAVVLHYTDWLHPEDPARLREALSDVVGDHNVVCPVAQLAGRLAAQGARVYAYVFEHRASTLSWPLWMGVPHGYEIEFIFGIPLDPSRNYTAEEKIFAQRLMRYWANFARTGDPNEPRDPKAPQWPPYTAGAQQYVSLDLRPLEVRRGLRAQACAFWNRFLPKLLSATDTLDEAERQWKAEFHRWSSYMVHWKNQFDHYSKQDRCSDL", "values": [{"measurement": "loss of AChE activity", "setting": "[3]; 4 degrees C., after 24 hours", "result": 20, "unit": "%"}, {"measurement": "initial activity retained", "setting": "[3]; 42 degrees, at least 30 minutes, total soluble protein extract", "result": 50, "unit": "%"}, {"measurement": "residual AChE activity", "setting": "[3]; room temperature (~25 degrees C.), after 25 hours", "result": 20, "unit": "%"}, {"measurement": "Km", "setting": "[4]", "result": "440 ± 100", "unit": "µM"}]}]}
